Reference: patent EP1064002B9, “USE OF SPHINGOSIN-1-PHOSPHATE, SPHINGOSIN-1-PHOSPHATE DERIVATIVES AND/OR MIXTURES THEREOF FOR THE TREATMENT OF INFLAMMATORY DISEASES OF THE SKIN” (Dermapharm AG, priority 1998, dated 1999)

Assays:
Assay type in all cases: cell-based
Keratinozyten [1] = assay: Keratinocyte proliferation in KGM, [3H]-thymidine incorporation into DNA; settings: 4-day treatment; for Proliferation von Keratinozyten ([^3H]-Thymidineinbau in die DNA): 1-10 µM
Description: (§1) Die Proliferation von Keratinozyten wurde in Gegenwart von 1-10 µM von Sphingolipid-Derivaten untersucht. Nach 4-tägiger Behandlung mit verschiedenen Sphingolipiden wurde in der logarithmischen Wachstumsphase der Keratinozyten der [^3H]-Thymidineinbau in die DNA gemessen. […] Eine Proliferationshemmung tritt bereits bei einer Konzentration von 1 µM ein, 10 µM SPP reduzierten den Thymidineinbau um ca. 63,1 % (Abb. 1). […] Anhand des MTT-Tests wurde die Zellvitalität in Gegenwart von 1-25 µM SPP untersucht, bis 10 µM wirkten die Substanzen nicht toxisch. […] Dies zeigten mikroskopische Untersuchungen, der MTT-Test als auch durchflußzytometrische Untersuchungen zu Apoptose und Nekrose.

Keratinozyten [2] = assay: Keratinocyte proliferation in keratinocyte basal medium (KBM) without supplements
Text: Die Versuche wurden auch in "keratinocyte basal medium" (KBM), ohne Supplemente), an kultivierten Keratinozyten durchgeführt. Damit konnte festgestellt werden, daß SPP bzw. […] DMS und C2C wirkten auch in diesem Medium toxisch.

Fibroblasten = assay: Fibroblast proliferation, non-stimulated cells in serum-free medium (DMEM without FKS)
Text: (§2) Das Wachstumsverhalten menschlicher. Fibroblasten in Gegenwart der Testsubstanzen wurde an nicht stimulierten Zellen verfolgt, die in serumfreiem Medium (nach Dulbecco modifiziertes Earle-Medium (DMEM) ohne fetales Kälber-Serum (FKS)) kultiviert wurden.

[3] = as above; settings: human, fibroblasts, read-out: Konzentrationen mit ausgeprägter Toxizität an Fibroblasten
Text: as §2

Keratinozyten [4] = assay: Keratinocyte differentiation, transglutaminase activity
Text: Nachdem gezeigt worden war, daß SPP die Proliferation von Keratinozyten hemmt, ohne daß damit eine vermehrte Toxizität verbunden ist, wurde der Differenzierungsgrad der Zellen nach Einwirkung der Sphingolipid-Derivate untersucht.

[5] = Keratinocyte viability/toxicity: MTT test, microscopy, flow cytometry for apoptosis and necrosis; settings: keratinocytes; tested at 1-25 µM; read-out: Zellvitalität (MTT-Test): nicht toxisch bis
Description: as §1

Row | Compound | Proliferation von Keratinozyten ([^3H]-Thymidineinbau in die DNA) (Keratinozyten [1]) | Toxizität an Keratinozyten (Keratinozyten [2]) | MCC [3] [µM] | Differenzierung von Keratinozyten (Transglutaminase-Aktivität) (Keratinozyten [4]) | Zunahme der Differenzierung von Keratinozyten compared with Calcitriol D3 (Keratinozyten [4]) | antiproliferative effect compared with another substance (Keratinozyten [1]) | mitogene Effekte an Keratinozyten (Keratinozyten [2]) | Proliferation von Fibroblasten (Fibroblasten; concentration-dependent) | other results
1 | CCCCCCCCCCCCC/C=C/[C@@H](O)[C@H](CO)NC(C)=O [C2C, C2-Ceramid] | hemmten zwar ebenso den Thymidineinbau | toxisch | ≥ 5 |  |  |  |  |  | Proliferation von Fibroblasten (Fibroblasten; low concentrations): sehr geringe proliferationsfördernde Wirkung
2 | C=C1/C(=C\C=C2/CCC[C@]3(C)[C@@H]([C@H](C)CCCC(C)(C)O)CC[C@@H]23)C[C@@H](O)C[C@@H]1O [Calcitriol] |  |  |  | ebenfalls eine Differenzierung fördert |  |  |  |  | 
3 | CCCCCCCCCCCCC/C=C/[C@@H](O)[C@H](CO)N(C)C [DMS, Dimethylsphingosin] |  | toxisch | ≥ 5 |  |  |  |  |  | 
4 | CCCCCCCCCCCCC/C=C/[C@@H](O)[C@@H](N)CO [SPH, Sphingosin] | wachstumshemmende Wirkung |  |  | die Differenzierung von Keratinozyten förderten | durchaus vergleichbar | schwächer ausgeprägt als bei SPP | keine mitogenen Effekte | konzentrationsabhängig stark' stimuliert | Wirkstärke (Teilungsaktivität bei Fibroblasten) compared with SPP (Fibroblasten): niedriger als bei SPP; toxische Effekte an Fibroblasten (Fibroblasten; 10 µM): toxische Effekte
5 | CCCCCCCCCCCCC/C=C/[C@@H](O)[C@@H](N)COP(=O)(O)O [SPP, Sphingosin-1-Phosphat] | stark proliferationshemmend |  |  | die Differenzierung von Keratinozyten förderten | durchaus vergleichbar | ebenso potent wie Calcipotriol D3 | keine mitogenen Effekte | konzentrationsabhängig stark' stimuliert | inhibition at 10 µM (Keratinozyten [1]; Keratinocyte, 96 h, 10 µM, logarithmic growth phase, read-out: reduzierten den Thymidineinbau um): ~63.1%; minimal effective concentration (Keratinozyten [1]; Keratinocyte, 96 h, read-out: Konzentration, bei der eine Proliferationshemmung bereits eintritt): 1 µM; Proliferation von Fibroblasten (Fibroblasten; 1 µM): wahrnehmbare Proliferationszunahme; fold induction at 10 µM (Fibroblasten; Fibroblast, 10 µM, read-out: höchste Aktivität (Proliferation von Fibroblasten)): ~6.5; MNTC [5]: ≤ 10 µM
